# From patent US7927811B2, “Polypeptides having brain-localizing activity and uses thereof” (Proteus Sciences Co., Ltd., priority 2003, dated 2011)
# System: mouse brain tissues (cerebral parenchyma)
# Assay: Brain-localizing peptide conjugates bound to gold colloids administered to mice; transmission electron microscopy of brain tissue sections
# Type: in vivo
# Conditions: biotin-conjugated peptide + avidin-gold particles administered to mice; electron micrographs, hippocampal pyramidal cells and cerebellar Purkinje cell region
# Source text: The present inventors produced brain-localizing peptide conjugates. The conjugates are molecules that can have a cyclic structure due to the formation of a disulfide bond between cysteine residues in a peptide molecule of the present invention, and may also have biotin attached to them. The conjugates have affinity to avidin compounds.
# The conjugates were bound to gold colloids and administered to mice, and the mice were subjected to experiments that evaluate the brain-localizing activity of the peptides of the present invention (observation of brain tissue sections under a transmission electron microscope).
# [Section Preparation] • (i) trimming • (ii) preparation of thick sections (2 to 3 μm thick) using a glass knife • (iii) preparation of ultra-thin sections (50 to 100 nm thick) using a diamond knife • (iv) electron staining: 2% uranium acetate and then 1% lead citrate (3 minutes each) • (v) transmission electron microscope observation (acceleration voltage of 80 kV)
# In the present experiment, T2J002 (SEQ ID NO: 2) and T2J004 (SEQ ID NO: 4) were used as peptides of the present invention. The arrows show positions of the gold particle-bound peptide molecules of the present invention. […] More specifically, the peptides of the present invention were confirmed to have brain-localizing activity.
row,Sequence,transport of gold colloids into the cerebral parenchyma (brain-localizing activity)
1,CSLNTRSQC [T2J002],successfully transport the gold colloids into the cerebral parenchyma
2,CVVRHLQQC [T2J004],successfully transport the gold colloids into the cerebral parenchyma
